The target of test [1] is T1, 5-HT4 receptor (Cavia porcellus, UniProt O70528).
T1 construct: Longitudinal muscle-myenteric plexus preparations, approximately 3 cm long, are obtained from the distal colon region; from tissue; host or cells: guinea pig distal colon, longitudinal muscle-myenteric plexus preparation
The test is described as follows: 5-HT4 receptor antagonist activity: guinea pig colon (longitudinal muscle-myenteric plexus preparations), reduction of 5-HT-evoked contractions. The class given is cell-based. The conditions noted are these: for activity in guinea pig colon, in words: relative to compounds generally active at pIC50 = 6 or more. The procedure: (§1) 5-HT4 RECEPTOR ANTAGONIST ACTIVITY
Male guinea-pigs, weighing 250-400 g are used. Longitudinal muscle-myenteric plexus preparations, approximately 3 cm long, are obtained from the distal colon region. These are suspended under a 0.5 g load in isolated tissue baths containing Krebs solution bubbled with 5% CO2 in O2 and maintained at 37° C. In all experiments, the Krebs solution also contains methiothepin 10^-7 M and granisetron 10^-6 M to block effects at 5-HT1, 5-HT2 and 5-HT3 receptors.
After construction of a simple concentration-response curve with 5-HT, using 30s contact times and a 15rain dosing cycle, a concentration of 5-HT is selected so as to obtain a contraction of the muscle approximately 40-70% maximum(10^-9 M approx). The tissue is then alternately dosed every 15 min with this concentration of 5-HT and then with an approximately equi-effective concentration of the nicotine receptor stimulant, dimethylphenylpiperazinium (DMPP). After obtaining consistent responses to both 5-HT and DMPP, increasing concentrations of a putative 5-HT4 receptor antagonist are then added to the bathing solution. The effects of this compound are then determined as a percentage reduction of the contractions evoked by 5-HT or by DMPP. […] A compound which reduces the response to 5-HT but not to DMPP is believed to act as a 5-HT4 receptor antagonist.

The target in test [2] is T2, 5-HT4 receptor (Sus scrofa, UniProt Q6Q253).
T2 construct: functional antagonism (pKB)
T2 sequence (Q6Q253 1-402): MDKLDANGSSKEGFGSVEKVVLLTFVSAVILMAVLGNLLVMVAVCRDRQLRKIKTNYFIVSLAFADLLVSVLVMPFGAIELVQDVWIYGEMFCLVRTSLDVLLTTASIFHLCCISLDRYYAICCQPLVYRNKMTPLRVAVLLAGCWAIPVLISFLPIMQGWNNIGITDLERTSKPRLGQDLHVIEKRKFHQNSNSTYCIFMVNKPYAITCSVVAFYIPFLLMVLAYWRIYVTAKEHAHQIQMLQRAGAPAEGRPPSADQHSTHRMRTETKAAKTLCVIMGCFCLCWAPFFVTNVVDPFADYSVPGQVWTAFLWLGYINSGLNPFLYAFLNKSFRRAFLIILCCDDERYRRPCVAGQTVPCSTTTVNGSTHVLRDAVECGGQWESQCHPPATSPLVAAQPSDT
The test can be described thus: 5-HT4 receptor antagonist activity: piglet atria, piglet spontaneous beating screen. Format: cell-based. The procedure:
as §1
Compounds were tested in the piglet spontaneous beating screen (Naunyn-Schmiedeberg's Arch. Pharmacol 342, 619-622). pKB (-log10 KB) value for the compound of Example 21 of EP-A-328200 was 7.6.

T1 sequence (O70528 whole entry): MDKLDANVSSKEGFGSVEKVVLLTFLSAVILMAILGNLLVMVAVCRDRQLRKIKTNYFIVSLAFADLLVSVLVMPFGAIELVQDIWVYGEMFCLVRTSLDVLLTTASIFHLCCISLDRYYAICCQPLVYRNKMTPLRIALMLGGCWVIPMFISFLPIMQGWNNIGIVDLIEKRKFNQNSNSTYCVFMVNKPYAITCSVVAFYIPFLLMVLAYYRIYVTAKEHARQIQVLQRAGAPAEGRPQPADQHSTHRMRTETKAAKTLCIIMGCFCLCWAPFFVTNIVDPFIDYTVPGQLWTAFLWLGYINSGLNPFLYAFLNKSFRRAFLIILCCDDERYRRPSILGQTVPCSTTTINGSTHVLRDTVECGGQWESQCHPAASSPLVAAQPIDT

As to `Cn1cc(-c2noc(CCN3CCCCC3)n2)c2ccccc21` [Example 21 of EP-A-328200, 1-methyl-3-[5-(2-(1-piperidyl)ethyl)-1,2,4-oxadiazol-3-yl]indole], the IC50 at 5-HT4 receptor [1] (5-HT approx 10^-9 M, Krebs solution with methiothepin 10^-7 M and granisetron 10^-6 M, 37° C, read-out: pIC50 (-log concentration of antagonist which reduces the contraction by 50%) (converted)) is 50.1 nM. Besides, the “pKB (-log10 KB)” value at 5-HT4 receptor [2] turned out to be 7.6.
In the case of `CCCCN(C)CCCc1nc(-c2cn(C)c3ccccc23)no1` [Example E1, 5-[3-(N-Methylbutylamino)propyl]-3-[1-methyl-1H-indol-3-yl]-1,2,4-oxadiazole], the “activity in guinea pig colon, in words” value at 5-HT4 receptor [1] was “particularly good activity”.
On the same count and under the same terms, under `CCCCN1CCC(Cc2nc(-c3cn(C)c4ccccc34)no2)CC1` [Example E3] stands “particularly good activity”.
